Results taken from article PMC4281022 (Journal of medicinal chemistry, 2013).
“Also recorded” adds a separate entry of the source.

How the values were obtained:
[1] = target: T1, human CB1 (Homo sapiens, UniProt P21554); assay: [3H]CP55940 radioligand displacement at CB1, membranes of CHO-K1 cells; type: binding; conditions: ratio of Ki values
[2] = target: CB1 receptor (Mus musculus, UniProt P47746); assay: Tetrad test: attenuation of central effects of Δ^9-THC; type: in vivo; conditions: 10 mg/kg oral, ICR mice
[3] = target: T1, human CB1; assay: CB1 calcium mobilization assay, antagonist apparent affinity; type: cell-based

T1 sequence (P21554 whole entry): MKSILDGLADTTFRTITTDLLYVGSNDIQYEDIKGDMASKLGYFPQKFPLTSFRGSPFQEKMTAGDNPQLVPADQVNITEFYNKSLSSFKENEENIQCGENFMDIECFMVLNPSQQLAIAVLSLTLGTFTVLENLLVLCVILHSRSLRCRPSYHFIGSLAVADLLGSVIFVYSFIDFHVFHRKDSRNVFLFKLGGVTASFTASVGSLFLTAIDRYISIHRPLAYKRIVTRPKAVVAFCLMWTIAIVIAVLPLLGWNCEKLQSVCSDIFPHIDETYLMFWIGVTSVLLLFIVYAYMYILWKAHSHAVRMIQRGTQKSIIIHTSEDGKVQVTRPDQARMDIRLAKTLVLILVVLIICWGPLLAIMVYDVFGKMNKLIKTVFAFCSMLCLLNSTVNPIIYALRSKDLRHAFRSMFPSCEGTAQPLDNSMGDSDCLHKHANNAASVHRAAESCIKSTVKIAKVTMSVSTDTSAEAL
Sequence of CB1 receptor (P47746 whole entry): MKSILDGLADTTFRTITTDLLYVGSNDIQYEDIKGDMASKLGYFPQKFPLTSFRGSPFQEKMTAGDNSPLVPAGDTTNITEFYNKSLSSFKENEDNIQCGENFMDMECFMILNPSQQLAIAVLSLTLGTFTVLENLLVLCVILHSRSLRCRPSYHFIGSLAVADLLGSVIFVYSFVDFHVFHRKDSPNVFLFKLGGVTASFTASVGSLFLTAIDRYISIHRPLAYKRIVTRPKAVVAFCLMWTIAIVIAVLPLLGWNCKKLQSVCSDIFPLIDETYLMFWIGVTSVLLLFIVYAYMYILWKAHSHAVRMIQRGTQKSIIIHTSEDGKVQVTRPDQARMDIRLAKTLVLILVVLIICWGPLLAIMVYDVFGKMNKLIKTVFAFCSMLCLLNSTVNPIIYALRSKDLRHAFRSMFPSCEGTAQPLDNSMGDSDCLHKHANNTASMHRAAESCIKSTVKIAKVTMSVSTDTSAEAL

Compound: CCCCC(=O)NC1CCN(c2ncnc3c2nc(-c2ccccc2Cl)n3-c2ccc(Cl)cc2)CC1 [Compound 9, N-{1-[8-(2-Chlorophenyl)-9-(4-chlorophenyl)-9H-purin-6-yl]piperidin-4-yl}pentanamide]
- Selectivity for CB1 over CB2 [1]: > 50 fold
- Reversal of the cannabimimetic effects of Δ^9-THC (tetrad) ([2]; 30 min before 30 mg/kg i.v. Δ^9-THC): without efficacy; also recorded: did not reverse any of the cannabimimetic effects of Δ^9-THC; also recorded: could not be reversed
- Effects in tetrad tests by itself ([2]; in combination with vehicle): did not produce any significant effects

Compound: O=C(CCN1CCCCC1)NC1CCN(c2ncnc3c2nc(-c2ccccc2Cl)n3-c2ccc(Cl)cc2)CC1 [Compound 15, N-{1-[8-(2-Chlorophenyl)-9-(4-chlorophenyl)-9H-purin-6-yl]piperidin-4-yl}-3-(piperidin-1-yl)propanamide]
- Kb [3]: 789 nM

Compound: O=S(=O)(NC1CCN(c2ncnc3c2nc(-c2ccccc2Cl)n3-c2ccc(Cl)cc2)CC1)C(F)(F)F [Compound 18, N-{1-[8-(2-chlorophenyl)-9-(4-chlorophenyl)-9H-purin-6-yl]piperidin-4-yl,}-1,1,1-trifluoromethanesulfonamide]
- Activity in the calcium mobilization assay [3]: very active

Compound: N-{1-[8-(2-chlorophenyl)-9-(4-chlorophenyl)-9H-purin-6-yl]piperidin-4-yl}aminosulfonamide [Compound 17]
- Activity in the calcium mobilization assay [3]: did not have significant activity
